Assay results reported in patent publication US4552874A, “Pyrazolooxazines, pyrazolothiazines, and pryazoloquinolines and their use as medicaments” (Bayer Aktiengesellschaft, priority 1982, dated 1985).

What was measured:
[1] = test system: Lipoxygenase in PMN Leucocytes; assay: Inhibition of lipoxygenase in PMN leucocytes (liberation of 5-HETE and leukotriene B4); format: cell-based, humans and rabbits; conditions: in vitro
Procedure: The polymorphonuclear leucocytes of humans and of rabbits metabolise arachidonic acid to 5-hydroxy-5,8,11,14-eicosatetraenoic acid (5-HETE) and leukotriene B4 (5S, 12R-dihydroxy-6 cis, 8,10-trans-14 cis-eicosatetraenoic acid). The inhibition of the liberation of 5-HETE and leukotriene B4 from the leucocytes provides a measure of the lipoxygenase-inhibitory effect of the compounds according to the invention. (Compare Table 1).
The test with human leucocytes is carried out by the method of Borgeat and Samuelsson (j. Biol. Chem. 254; 2643, 1979 and Proc. Natl. Acad. Sci. USA, 76, 2148 (1979), and with rabbit leucocytes by the method of Walker and Parish (Inter. Archs. Allergy appl. Immun. 66, 83, 1981).

carrageenan oedema = assay: Inhibition of carrageenan oedema formation; format: in vivo; conditions: rat, oral administration of 25 mg/kg
From the text: The compounds according to the invention are also active in vivo. […] The compounds according to the invention also reduce the formation of oedema in the model of carrageenan inflammation, (compare Table 3) and inhibit the formation of metastases from B-16 melanoma (method of Honn, et. al. Science 212, 1270, 1981).

| SMILES | Minimum concentration (g/ml) for inhibition of Lipoxygenase in PMN Leucocytes [1] | inhibition in vivo at 25 mg/kg (carrageenan oedema) |
| --- | --- | --- |
| Clc1cc(Cl)c2c(c1)Nc1[nH]ncc1O2 | 10^-6 g/ml | – |
| Cc1ccc2c(c1)Nc1c(cnn1-c1ccccc1)S2 | 10^-5 g/ml | – |
| CN1c2ccccc2Cc2cn(C)nc21 | > 10^-5 g/ml | – |
| CN1c2ccccc2Cc2cnn(-c3ccccc3)c21 | > 10^-5 g/ml | – |
| CN1c2ccccc2Cc2cnn(C(=O)c3ccc(Cl)cc3)c21 | > 10^-5 g/ml | – |
| c1ccc(N2c3ccccc3Cc3cn[nH]c32)cc1 | > 10^-5 g/ml | – |
| COc1ccc2c(c1)Nc1[nH]ncc1O2 | < 10^-6 g/ml | – |
| CCN1c2cc(OC)ccc2Oc2cn[nH]c21 | < 10^-6 g/ml | – |
| COc1ccc2c(c1)N(C)c1nn(C)cc1O2 | > 10^-5 g/ml | – |
| Oc1ccc2c(c1)Nc1[nH]ncc1O2 | < 10^-6 g/ml | – |
| COc1ccc2c(c1)Oc1cn[nH]c1N2 | < 10^-6 g/ml | – |
| c1ccc(CN2c3ccccc3Oc3cn[nH]c32)cc1 | 10^-6 g/ml | – |
| CN1c2ccccc2Oc2cn(CCO)nc21 | > 10^-5 g/ml | – |
| CCOC(=O)CN1c2ccccc2Oc2cn[nH]c21 | > 10^-5 g/ml | – |
| CC(=O)n1cc2c(n1)N(C)c1ccccc1S2 | > 10^-5 g/ml | – |
| CC(C)N1c2ccccc2Oc2cn[nH]c21 | < 10^-6 g/ml | – |
| c1ccc2c(c1)Oc1cn[nH]c1N2CC1CCCCC1 | 10^-5 g/ml | – |
| COc1ccc2c(c1)Nc1c(cnn1C(C)=O)O2 | 10^-5 g/ml | – |
| CCN1c2cc(OCC(=O)O)ccc2Oc2cn(C)nc21 | 10^ -5 g/ml | – |
| CN1c2ccccc2Cc2cn(C(=O)OCc3ccccc3)nc21 | > 10^-5 g/ml | – |
| Cn1cc2c(n1)N(c1ccccc1)c1ccccc1C2 | > 10^-5 g/ml | – |

| SMILES | Minimum concentration (g/ml) for inhibition of Lipoxygenase in PMN Leucocytes [1] | inhibition in vivo at 25 mg/kg (carrageenan oedema) |
| --- | --- | --- |
| Cn1ncc2c1N(c1ccccc1)c1ccccc1C2 | > 10^-5 g/ml | – |
| CN1c2ccccc2Oc2cn(CCOc3ccc4ccccc4c3)nc21 | > 10^-5 g/ml | – |
| CCN1c2cc(O)ccc2Oc2cn(C)nc21 | < 10^-5 g/ml | – |
| CCN1c2cc(OCC(=O)OCc3ccccc3)ccc2Oc2cn(C)nc21 | 10^-5 g/ml | – |
| Cn1cc2c(n1)N(CC1CCCCC1)c1ccccc1O2 | > 10^-5 g/ml | – |
| CC(C)N1c2ccccc2Oc2cn(C)nc21 | > 10^-5 g/ml | – |
| CN1c2ccccc2Oc2cn(Cc3ccc(Cl)c(Cl)c3)nc21 | > 10^-5 g/ml | – |
| FC(F)(F)c1ccc2c(c1)Nc1[nH]ncc1O2 | < 10^-5 g/ml | – |
| FC(F)(F)Sc1ccc2c(c1)Nc1[nH]ncc1O2 | < 10^-5 g/ml | – |
| c1ccc(N2c3ccccc3Oc3cn[nH]c32)cc1 | 10^-5 g/ml | – |
| CN1c2cc(OCc3ccccc3)ccc2Oc2cn[nH]c21 | < 10^-5 g/ml | – |
| COc1ccc2c(c1)Oc1cn[nH]c1N2C | < 10^-5 g/ml | – |
| COc1ccc2c(c1)Oc1cnn(C)c1N2C | > 10^-5 g/ml | – |
| c1ccc(COCCN2c3ccccc3Oc3cn[nH]c32)cc1 | 10^-5 g/ml | – |
| OCCN1c2ccccc2Oc2cn[nH]c21 | < 10^-5 g/ml | – |
| CCN1c2ccc(OC)cc2Oc2cn[nH]c21 | < 10^-5 g/ml | – |
| c1c2c(cc3c1OCO3)Oc1cn[nH]c1N2 | < 10^-5 g/ml | – |
| Clc1ccc2c(c1)Nc1[nH]ncc1O2 [Compound 2] | – | 57.8% |
| Cc1ccc2c(c1)Nc1[nH]ncc1O2 [Compound 3] | – | 41.4% |
| c1ccc(-n2ncc3c2Nc2ccccc2O3)cc1 [Compound 9] | – | 75.1% |
| CN1c2ccccc2Oc2cn[nH]c21 [Compound 10] | – | 73.4% |

| SMILES | Minimum concentration (g/ml) for inhibition of Lipoxygenase in PMN Leucocytes [1] | inhibition in vivo at 25 mg/kg (carrageenan oedema) |
| --- | --- | --- |
| O=S1(=O)c2ccccc2Nc2[nH]ncc21 [Compound 16] | – | 45.4% |
| CC(=O)n1cc2c(n1)N(C)c1ccccc1C2 [Compound 27] | – | 62.4% |
| CN1c2nn(C)cc2Cc2cccc(Br)c21 [Compound 30] | 10^-5 g/ml | – |
| COc1ccc2c(c1)N(C)c1[nH]ncc1O2 [Compound 36] | – | 60% |
| CCOC(=O)Cn1cc2c(n1)N(C1CCCCC1)c1ccccc1O2 [Compound 39, Ethyl (9-cyclohexylpyrazolo[4,3-b][1,4]benzoxazin-2-yl) acetate] | – | 47.5% |
| O=C(O)Cn1cc2c(n1)N(C1CCCCC1)c1ccccc1O2 [Compound 40, 9-Cyclohexylpyrazolo[4,3-b][1,4]benzoxazine-2-acetic acid] | > 10^-5 g/ml | 44% |
| CN1c2ccccc2Oc2cn(C(=O)c3ccccn3)nc21 [Compound 42] | – | 67.3% |
| CC(=O)n1cc2c(n1)N(C)c1ccccc1O2 [Compound 44, 2-Acetyl-9-methylpyrazolo[4,3-b][1,4]benzoxazine] | – | 70% |
| CCN1c2cc(OC)ccc2Oc2cnn(C)c21 [Compound 50] | 10^-5 g/ml | – |
| Cn1cc2c(n1)N(Cc1ccccc1)c1ccccc1O2 [Compound 60] | > 10^-5 g/ml | – |
| CCCCOc1ccc2c(c1)N(C)c1[nH]ncc1O2 [Compound 70] | < 10^-5 g/ml | – |
| CN1c2cc(SC(F)(F)F)ccc2Oc2cn[nH]c21 [Compound 71] | < 10^-5 g/ml | – |
| CC(=O)n1cc2c(n1)N(C)c1ccccc1C2 [drawing 38] | > 10^-5 g/ml | – |
| COc1ccc2c(c1)N(C)c1[nH]ncc1O2 [drawing 47] | < 10^-6 g/ml | – |
| CCN1c2cc(OC)ccc2Oc2cnn(C)c21 [drawing 49] | 10^-6 g/ml | – |
| CCOC(=O)Cn1cc2c(n1)N(C1CCCCC1)c1ccccc1O2 [drawing 50] | > 10^-5 g/ml | – |
| CN1c2ccccc2Oc2cn(C(=O)c3ccccn3)nc21 [drawing 53] | > 10^-5 g/ml | – |
| CC(=O)n1cc2c(n1)N(C)c1ccccc1O2 [drawing 55] | > 10^-5 g/ml | – |
| c1ccc2c(c1)Oc1cn[nH]c1N2C1CCCCC1 [drawing 56] | 10^ -6 g/ml | – |
| c1ccc2c(c1)Oc1cn[nH]c1N2C1CCCCC1 [drawing 59] | > 10^-6 g/ml | – |
